Here are results for 48 molecules from ChEMBL document CHEMBL3044597, “Docking-based 3D-QSAR modeling of the inhibitors of IMP metallo--lactamase” (Med Chem Res, 2013).

The structures appear in SMILES notation.

By IC50 is commonly meant the point on the concentration scale where inhibition reaches its midpoint.

Beta-lactamase, sequence (Q79MP6 whole entry): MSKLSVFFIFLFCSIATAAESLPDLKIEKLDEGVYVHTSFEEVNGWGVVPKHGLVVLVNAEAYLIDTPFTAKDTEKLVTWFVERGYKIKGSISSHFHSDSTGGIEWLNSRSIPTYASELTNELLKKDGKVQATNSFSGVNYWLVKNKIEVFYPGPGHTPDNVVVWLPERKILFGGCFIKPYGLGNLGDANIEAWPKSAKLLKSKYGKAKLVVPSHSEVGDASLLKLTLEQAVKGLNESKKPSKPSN

This experiment has as its target Beta-lactamase (Pseudomonas aeruginosa, UniProt Q79MP6). In words: Inhibition of Pseudomonas aeruginosa IMP1 metallo-beta-lactamase.
With `CC(=O)S[C@H](Cc1ccc(-c2ccccc2)cc1)C(=O)O`, the IC50 was 0.0839 µM.
As for `O=C(O)[C@@H](Cc1ccccc1)[C@H](Cc1ccc2c(c1)OCO2)C(=O)O`, the half-inhibitory concentration (IC50) is 0.0037 µM.
Under `C/C=C/C(=O)N[C@H](C)C(=O)S[C@@H](C)Cc1ccc(-c2ccccc2)cc1` stands 33 µM; under `O=C(O)[C@H](Cc1ccccc1)[C@@H](Cc1ccccc1)C(=O)O` [(2R,3R)-2,3-DIBENZYLSUCCINIC ACID], 0.21 µM; under `C=CCOC(=O)N[C@H](C)C(=O)S[C@@H](C)Cc1ccc(-c2ccccc2)cc1`, 4.4 µM.
Under `CC(=O)N[C@H](C)C(=O)S[C@@H](C)Cc1ccc(-c2ccccc2)cc1` stands 18 µM.
Under `C[C@@H](Cc1ccc(-c2ccccc2)cc1)SC(=O)[C@@H](C)NC(=O)Cc1ccc(O)cc1` stands 3.1 µM; under `C[C@@H](Cc1ccc(-c2ccccc2)cc1)SC(=O)[C@@H](C)NC(=O)Cc1ccccc1`, 5.79 µM; under `CC(=O)S[C@H](Cc1ccccc1)C(=O)O`, 12 µM.
As to `C[C@@H](Cc1ccc2oc3ccccc3c2c1)SC(=O)[C@@H](C)NC(=O)c1ccccc1`, inhibition was half-maximal at 1.5 µM (IC50).
For `C[C@@H](Cc1ccc(-c2ccccc2)cc1)SC(=O)[C@@H](C)NC(=O)COc1ccccc1` the value was 1 µM; for `C[C@@H](c1ccccc1)[C@H](C(=O)O)[C@H](Cc1ccccc1)C(=O)O`, 0.013 µM.
In turn, `C[C@@H](Cc1ccc(-c2ccccc2)cc1)SC(=O)[C@@H](C)NC(=O)c1ccccc1` had an IC50 of 3.6 µM.
For `O=C(O)[C@@H](S)Cc1ccc2oc3ccccc3c2c1` the value was 0.25 µM; for `O=C(O)[C@H](S)Cc1ccccc1`, 0.0859 µM; for `C[C@@H](Cc1ccc(-c2ccccc2)cc1)SC(=O)[C@@H](C)NC(=O)c1cccc(N(C)C)c1`, 15 µM.
`C[C@@H](Cc1ccc(-c2ccccc2)cc1)SC(=O)[C@@H](C)NC(=O)CCc1ccccc1` gave an IC50 of 15 µM.
For `C=CCOC(=O)N[C@H](C)C(=O)S[C@@H](C)Cc1ccc2oc3ccccc3c2c1` the value was 2.9 µM.
Under `COc1ccc(CC(=O)N[C@H](C)C(=O)S[C@@H](C)Cc2ccc(-c3ccccc3)cc2)cc1` stands 12 µM; under `C[C@@H](Cc1ccc(-c2ccccc2)cc1)SC(=O)[C@@H](C)NC(=O)CNC(=O)c1ccccc1`, 50 µM.
For `CCC(=O)N[C@H](C)C(=O)S[C@@H](C)Cc1ccc(-c2ccccc2)cc1` the value was 9.51 µM; for `O=C(O)[C@@H](S)Cc1ccc(-c2ccccc2)cc1`, 1.2 µM; for `O=C(S[C@H](Cc1ccc2oc3ccccc3c2c1)C(=O)O)c1ccccc1`, 0.0013 µM.
On to `O=C(O)[C@H](S)Cc1ccc(-c2ccccc2)cc1`, for which the IC50 was 0.057 µM.
Under `CC(C)C(=O)N[C@H](C)C(=O)S[C@@H](C)Cc1ccc(-c2ccccc2)cc1` stands 9.71 µM; under `C[C@@H](Cc1ccc(-c2ccccc2)cc1)SC(=O)[C@@H](C)NC(=O)Cc1ccc(N(C)C)cc1`, 55 µM.
For `CCCCCC(=O)N[C@H](C)C(=O)S[C@@H](C)Cc1ccc(-c2ccccc2)cc1` the value was 13 µM; for `CCCC(=O)N[C@H](C)C(=O)S[C@@H](C)Cc1ccc(-c2ccccc2)cc1`, 9.29 µM; for `C[C@@H](Cc1ccc(-c2ccccc2)cc1)SC(=O)[C@@H](C)NC(=O)/C=C/c1ccccc1`, 11 µM.
Under `C[C@@H](Cc1ccc(-c2ccccc2)cc1)SC(=O)[C@@H](C)NC(=O)c1ccc2ccccc2c1` stands 18 µM.
Molecule `O=C(O)[C@H](S)Cc1ccc2oc3ccccc3c2c1` gave a 50% inhibitory concentration (IC50) of 0.023 µM.
The molecule `COc1ccc(C(=O)N[C@H](C)C(=O)S[C@@H](C)Cc2ccc(-c3ccccc3)cc2)cc1` had an IC50 of 29 µM.
For `C[C@@H](Cc1ccc(-c2ccccc2)cc1)SC(=O)[C@@H](C)NC(=O)Cc1cccnc1` the value was 32 µM.
Under `O=C(S[C@H](Cc1ccccc1)C(=O)O)c1ccccc1` stands 0.064 µM; under `COc1cc(OC)c(C(=O)N[C@H](C)C(=O)S[C@@H](C)Cc2ccc(-c3ccccc3)cc2)c(OC)c1`, 46 µM.
Under `O=C(O)[C@@H](Cc1ccccc1)[C@H](Cc1ccccc1)C(=O)O` stands 0.0027 µM.
The molecule `C[C@@H](Cc1ccc(-c2ccccc2)cc1)SC(=O)[C@@H](C)NC(=O)Cc1ccccc1Cc1ccccc1` showed an IC50 of 24 µM.
For `O=C(O)[C@@H](Cc1ccc2c(c1)OCO2)[C@H](Cc1ccc2c(c1)OCO2)C(=O)O` the value was 0.00899 µM; for `C[C@@H](Cc1ccc(-c2ccccc2)cc1)SC(=O)[C@@H](C)NC(=O)CSCC(=O)O`, 13 µM; for `COc1cccc(C(=O)N[C@H](C)C(=O)S[C@@H](C)Cc2ccc(-c3ccccc3)cc2)c1`, 38 µM.
Under `CCCCC(=O)N[C@H](C)C(=O)S[C@@H](C)Cc1ccc(-c2ccccc2)cc1` stands 4.8 µM.
For `C[C@@H](Cc1ccccc1)SC(=O)[C@@H](C)NC(=O)c1ccccc1` the value was 20 µM; for `CC(=O)N[C@H](C)C(=O)S[C@@H](C)Cc1ccc2oc3ccccc3c2c1`, 2 µM; for `C[C@@H](Cc1ccc(-c2ccccc2)cc1)SC(=O)[C@@H](C)NC(=O)CCCC(=O)O`, 91 µM.
The molecule `CC(C)CC(=O)N[C@H](C)C(=O)S[C@@H](C)Cc1ccc(-c2ccccc2)cc1` had an IC50 of 5.3 µM.
Molecule `C[C@@H](Cc1ccc(-c2ccccc2)cc1)SC(=O)[C@@H](C)NC(=O)CCC(=O)c1ccccc1` had an IC50 of 0.25 µM.
Under `C[C@@H](Cc1ccc(-c2ccccc2)cc1)SC(=O)[C@@H](C)NC(=O)Cc1cccc2ccccc12` stands 12 µM.
Under `O=C(S[C@@H](Cc1ccccc1)C(=O)O)c1ccccc1` stands 2.5 µM.
